# pIC50: −log10 of the molar value.
# Target: T1, human ENT1 (Homo sapiens, UniProt Q99808)
# T1 sequence (Q99808 1-456): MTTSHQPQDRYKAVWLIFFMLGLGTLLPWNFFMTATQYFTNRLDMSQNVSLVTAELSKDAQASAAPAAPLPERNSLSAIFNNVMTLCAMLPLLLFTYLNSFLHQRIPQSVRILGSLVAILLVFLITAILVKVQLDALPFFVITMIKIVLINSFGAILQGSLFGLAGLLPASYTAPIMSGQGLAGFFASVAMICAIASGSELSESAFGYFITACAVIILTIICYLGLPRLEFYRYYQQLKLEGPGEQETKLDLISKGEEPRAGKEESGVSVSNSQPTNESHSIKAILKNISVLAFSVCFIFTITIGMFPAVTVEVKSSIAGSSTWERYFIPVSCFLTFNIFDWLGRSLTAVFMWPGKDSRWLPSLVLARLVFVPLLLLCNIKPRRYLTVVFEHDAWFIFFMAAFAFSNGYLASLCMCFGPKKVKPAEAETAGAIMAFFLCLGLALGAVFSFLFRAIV
# Experiment: ENT1 binding assay (competition with Sahenta-DY647 on JAR cells)
# Design: JAR cells expressing ENT1 were bought from ATCC® (HTB-144TM); host or cells: JAR cells (human choriocarcinoma line; whole cells)
# Conditions: competition with Sahenta-DY647 100 nM, 4° C.
# Method: The present assay aims at showing that the compounds of the present invention can bind to human ENT1. The principle of the assay is a competition between the compounds of this invention and Sahenta-DY647, an ENT1 inhibitor that emits fluorescence (Ex = 630 nm, Em = 670 nm). By measuring the fluorescence at the end of the assay we could assess the binding potency of the compounds of the present invention.
# JAR cells expressing ENT1 were bought from ATCC® (HTB-144TM). Cells were cultured in RPMI 1640 medium (LONZA®, #BE12-702F/U1) supplemented with 10% FBS (GIBCO®, #10270-106), 10 mM Hepes (LONZA®, #BE17-737E), 1 mM Sodium Pyruvate (LONZA®, #BE13-115E) and 2% Penicillin/Streptomycin (LONZA®, #DE17-603E) at 37° C. and 5% CO2. The assay was conducted on the following buffer: HBSS (LONZA®, #LO-527F) supplemented with 10 mM Hepes (LONZA®, #BE17-737E) and 0.1% BSA (Miltenyi®, #130-091-376) on the day of the assay. JAR cells were resuspended in the described buffer. Compounds of the present invention and Sahenta-DY647 were diluted 200X in the described buffer.
# A total of 50000 cells were pre-incubated for 30 min at 4° C. with the compounds of the present invention before adding the corresponded IC90 of Sahenta-DY647 (100 nM) and incubate once more for 30 min at 4° C. The total volume of the reaction was 100 µL (50 µL of cells, 25 µL of the compounds of the present invention and 25 µL of Sahenta-DY647) in a 96 well plate, U-bottom (Greiner®, #650-180). The plates were washed 2X by centrifugation (4 min, 400 rcf at 4° C.) in the same buffer. Cells were resuspended in 70 µL of the buffer and 50 µL was transferred to a Black 384 Optiplate (PerkinElmer®, #6007279). Fluorescence (Ex = 630 nm, Em = 670 nm) was acquired on a Spectramax i3x (Molecular Devices®).
row,Structure (SMILES),pIC50
1,"COc1cc2cc(c1OC)OCCCC(OC(=O)c1ccc(O)cc1)CCN1CCCN(CCCOC2=O)CC1 (stereo not shown) [Compound 41, 74,75-dimethoxy-6-oxo-5,8-dioxa-1(1,4)-diazepana-7(1,3)-benzenacyclotetradecaphane-12-yl 4-hydroxybenzoate]",7.70 to 9.00
2,"COc1cc2cc(c1OC)OCCCC(OC(=O)c1cccc(C(F)(F)F)c1)CCN1CCCN(CCCOC2=O)CC1 (stereo not shown) [Compound 44, 74,75-dimethoxy-6-oxo-5,8-dioxa-1(1,4)-diazepana-7(1,3)-benzenacyclotetradecaphane-12-yl 3-(trifluoromethyl)benzoate]",7.70 to 9.00
3,"COc1cc2cc(c1OC)OCCCC(OC(=O)c1cccc(S(C)(=O)=O)c1)CCN1CCCN(CCCOC2=O)CC1 (stereo not shown) [Compound 45, 74,75-dimethoxy-6-oxo-5,8-dioxa-1(1,4)-diazepana-7(1,3)-benzenacyclotetradecaphane-12-yl 3-(methylsulfonyl)benzoate]",7.70 to 9.00
4,"COc1cc2cc(c1OC)OCCCC(OC(=O)c1ccccc1F)CCN1CCCN(CCCOC2=O)CC1 (stereo not shown) [Compound 47, 74,75-dimethoxy-6-oxo-5,8-dioxa-1(1,4)-diazepana-7(1,3)-benzenacyclotetradecaphane-12-yl 2-fluorobenzoate]",7.70 to 9.00
5,"COc1cc2cc(c1OC)OCCCC(OC(=O)c1ccc(Br)c(C#N)c1)CCN1CCCN(CCCOC2=O)CC1 (stereo not shown) [Compound 48, 74,75-dimethoxy-6-oxo-5,8-dioxa-1(1,4)-diazepana-7(1,3)-benzenacyclotetradecaphane-12-yl 4-bromo-3-cyanobenzoate]",7.70 to 9.00
6,"COc1cc2cc(c1OC)OCCCC(OC(=O)c1cc(C)cc(C(F)(F)F)c1)CCN1CCCN(CCCOC2=O)CC1 (stereo not shown) [Compound 49, 74,75-dimethoxy-6-oxo-5,8-dioxa-1(1,4)-diazepana-7(1,3)-benzenacyclotetradecaphane-12-yl 3-methyl-5-(trifluoromethyl)benzoate]",6.30 to 7.70
7,"COc1ccc(C(=O)OC2CCCOc3cc(cc(OC)c3OC)C(=O)OCCCN3CCCN(CC2)CC3)c(F)c1 (stereo not shown) [Compound 50, 74,75-dimethoxy-6-oxo-5,8-dioxa-1(1,4)-diazepana-7(1,3)-benzenacyclotetradecaphane-12-yl 2-fluoro-4-methoxybenzoate]",7.70 to 9.00
8,"COc1ccc(C(=O)OC2CCCOc3cc(cc(OC)c3OC)C(=O)OCCCN3CCCN(CC2)CC3)c(OC(F)(F)F)c1 (stereo not shown) [Compound 51, 74,75-dimethoxy-6-oxo-5,8-dioxa-1(1,4)-diazepana-7(1,3)-benzenacyclotetradecaphane-12-yl 4-methoxy-2-(trifluoromethoxy)benzoate]",6.30 to 7.70
9,"COc1cc2cc(c1OC)OCCCC(OC(=O)c1cccnc1)CCN1CCCN(CCCOC2=O)CC1 (stereo not shown) [Compound 53, 74,75-dimethoxy-6-oxo-5,8-dioxa-1(1,4)-diazepana-7(1,3)-benzenacyclotetradecaphane-12-yl nicotinate]",7.70 to 9.00
10,"COc1cc2cc(c1OC)OCCCC(OC(=O)c1ccc(O)nc1)CCN1CCCN(CCCOC2=O)CC1 (stereo not shown) [Compound 55, 74,75-dimethoxy-6-oxo-5,8-dioxa-1(1,4)-diazepana-7(1,3)-benzenacyclotetradecaphane-12-yl 6-hydroxynicotinate]",7.70 to 9.00
11,"COc1cc2cc(c1OC)OCCCC(OC(=O)c1cccc3ncccc13)CCN1CCCN(CCCOC2=O)CC1 (stereo not shown) [Compound 56, 74,75-dimethoxy-6-oxo-5,8-dioxa-1(1,4)-diazepana-7(1,3)-benzenacyclotetradecaphane-12-yl quinoline-5-carboxylate]",7.70 to 9.00
12,"COc1cc2cc(c1OC)OCCCC(OC(=O)c1cocn1)CCN1CCCN(CCCOC2=O)CC1 (stereo not shown) [Compound 57, 74,75-dimethoxy-6-oxo-5,8-dioxa-1(1,4)-diazepana-7(1,3)-benzenacyclotetradecaphane-12-yl oxazole-4-carboxylate]",7.70 to 9.00
13,"COc1cc2cc(c1OC)OCCCC(OC(=O)CC(C)C)CCN1CCCN(CCCOC2=O)CC1 (stereo not shown) [Compound 61, 74,75-dimethoxy-6-oxo-5,8-dioxa-1(1,4)-diazepana-7(1,3)-benzenacyclotetradecaphane-12-yl 3-methylbutanoate]",6.30 to 7.70
14,"COc1cc2cc(c1OC)OCCCC(OC(=O)CCC(F)(F)F)CCN1CCCN(CCCOC2=O)CC1 (stereo not shown) [Compound 62, 74,75-dimethoxy-6-oxo-5,8-dioxa-1(1,4)-diazepana-7(1,3)-benzenacyclotetradecaphane-12-yl 4,4,4-trifluorobutanoate]",7.70 to 9.00
15,"COc1cc2cc(c1OC)OCCCC(OC(=O)C1CCCCC1)CCN1CCCN(CCCOC2=O)CC1 (stereo not shown) [Compound 63, 74,75-dimethoxy-6-oxo-5,8-dioxa-1(1,4)-diazepana-7(1,3)-benzenacyclotetradecaphane-12-yl cyclohexanecarboxylate]",7.70 to 9.00
16,"COc1cc2cc(c1OC)OCCCC(OC(=O)C1CCN(C)CC1)CCN1CCCN(CCCOC2=O)CC1 (stereo not shown) [Compound 64, 74,75-dimethoxy-6-oxo-5,8-dioxa-1(1,4)-diazepana-7(1,3)-benzenacyclotetradecaphane-12-yl 1-methylpiperidine-4-carboxylate]",< 6.30
17,"COc1cc2cc(c1OC)OCCCC(OC(=O)C1CC(C)(C)C1)CCN1CCCN(CCCOC2=O)CC1 (stereo not shown) [Compound 65, 74,75-dimethoxy-6-oxo-5,8-dioxa-1(1,4)-diazepana-7(1,3)-benzenacyclotetradecaphane-12-yl 3,3-dimethylcyclobutane-1-carboxylate]",6.30 to 7.70
18,"COc1cc2cc(c1OC)OCCCC(OC(=O)CC1COC1)CCN1CCCN(CCCOC2=O)CC1 (stereo not shown) [Compound 66, 74,75-dimethoxy-6-oxo-5,8-dioxa-1(1,4)-diazepana-7(1,3)-benzenacyclotetradecaphane-12-yl 2-(oxetan-3-yl)acetate]",7.70 to 9.00
19,"COc1cc2cc(c1OC)OCCCC(OC(=O)[C@H]1[C@@H]3COC[C@@H]31)CCN1CCCN(CCCOC2=O)CC1 (stereo partly drawn) [Compound 67, 74,75-dimethoxy-6-oxo-5,8-dioxa-1(1,4)-diazepana-7(1,3)-benzenacyclotetradecaphane-12-yl (1R,5S,6r)-3-oxabicyclo[3.1.0]hexane-6-carboxylate]",6.30 to 7.70
20,"COc1cc2cc(c1OC)OCCCC(OC(=O)C1CNC(=O)C1)CCN1CCCN(CCCOC2=O)CC1 (stereo not shown) [Compound 68, 74,75-dimethoxy-6-oxo-5,8-dioxa-1(1,4)-diazepana-7(1,3)-benzenacyclotetradecaphane-12-yl 5-oxopyrrolidine-3-carboxylate]",7.70 to 9.00
21,"COc1cc2cc(c1OC)OCCCC(OC(=O)C1CC(=O)N(Cc3ccccc3)C1)CCN1CCCN(CCCOC2=O)CC1 (stereo not shown) [Compound 69, 74,75-dimethoxy-6-oxo-5,8-dioxa-1(1,4)-diazepana-7(1,3)-benzenacyclotetradecaphane-12-yl 1-benzyl-5-oxopyrrolidine-3-carboxylate]",7.70 to 9.00
22,"COc1cc2cc(c1OC)OCCCC(OC(=O)C1CCC(OC)CC1)CCN1CCCN(CCCOC2=O)CC1 (stereo not shown) [Compound 70, 74,75-dimethoxy-6-oxo-5,8-dioxa-1(1,4)-diazepana-7(1,3)-benzenacyclotetradecaphane-12-yl 4-methoxycyclohexane-1-carboxylate]",7.70 to 9.00
23,"COc1cc2cc(c1OC)OCCCC(OC(=O)c1c(F)cccc1F)CCN1CCCN(CCCOC2=O)CC1 (stereo not shown) [Compound 71, 74,75-dimethoxy-6-oxo-5,8-dioxa-1(1,4)-diazepana-7(1,3)-benzenacyclotetradecaphane-12-yl 2,6-difluorobenzoate]",7.70 to 9.00
24,"COc1cc2cc(c1OC)OCCCC(OC(=O)c1cccc(C#N)c1)CCN1CCCN(CCCOC2=O)CC1 (stereo not shown) [Compound 73, 74,75-dimethoxy-6-oxo-5,8-dioxa-1(1,4)-diazepana-7(1,3)-benzenacyclotetradecaphane-12-yl 3-cyanobenzoate]",7.70 to 9.00
25,"COc1cc2cc(c1OC)OCCCC(OC(=O)c1ccc3c(c1)CCC(=O)N3)CCN1CCCN(CCCOC2=O)CC1 (stereo not shown) [Compound 74, 74,75-dimethoxy-6-oxo-5,8-dioxa-1(1,4)-diazepana-7(1,3)-benzenacyclotetradecaphane-12-yl 2-oxo-1,2,3,4-tetrahydroquinoline-6-carboxylate]",7.70 to 9.00
